Source: ChEMBL document CHEMBL3991601, “The target landscape of clinical kinase drugs” (Science, 2017)
Active and inactive are the calls of the source.

Key:
Activin receptor type-1B = biological target: T1, Activin receptor type-1B (Homo sapiens, UniProt P36896)
T1 sequence (P36896 whole entry): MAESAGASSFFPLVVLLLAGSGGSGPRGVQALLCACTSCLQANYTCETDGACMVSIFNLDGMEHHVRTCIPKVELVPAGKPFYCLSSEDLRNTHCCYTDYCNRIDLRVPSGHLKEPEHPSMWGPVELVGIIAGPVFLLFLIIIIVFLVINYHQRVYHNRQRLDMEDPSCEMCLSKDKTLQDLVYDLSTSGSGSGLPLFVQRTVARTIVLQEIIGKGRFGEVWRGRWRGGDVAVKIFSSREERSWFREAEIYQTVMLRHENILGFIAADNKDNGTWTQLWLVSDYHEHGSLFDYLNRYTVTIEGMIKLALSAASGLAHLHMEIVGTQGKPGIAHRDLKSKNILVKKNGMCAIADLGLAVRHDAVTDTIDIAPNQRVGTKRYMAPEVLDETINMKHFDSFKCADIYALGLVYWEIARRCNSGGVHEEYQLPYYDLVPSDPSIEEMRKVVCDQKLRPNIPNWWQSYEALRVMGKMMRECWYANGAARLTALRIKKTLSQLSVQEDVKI

[1] = biological target: RAC-gamma serine/threonine-protein kinase (Homo sapiens, UniProt Q9Y243)
RAC-gamma serine/threonine-protein kinase, sequence (Q9Y243 whole entry): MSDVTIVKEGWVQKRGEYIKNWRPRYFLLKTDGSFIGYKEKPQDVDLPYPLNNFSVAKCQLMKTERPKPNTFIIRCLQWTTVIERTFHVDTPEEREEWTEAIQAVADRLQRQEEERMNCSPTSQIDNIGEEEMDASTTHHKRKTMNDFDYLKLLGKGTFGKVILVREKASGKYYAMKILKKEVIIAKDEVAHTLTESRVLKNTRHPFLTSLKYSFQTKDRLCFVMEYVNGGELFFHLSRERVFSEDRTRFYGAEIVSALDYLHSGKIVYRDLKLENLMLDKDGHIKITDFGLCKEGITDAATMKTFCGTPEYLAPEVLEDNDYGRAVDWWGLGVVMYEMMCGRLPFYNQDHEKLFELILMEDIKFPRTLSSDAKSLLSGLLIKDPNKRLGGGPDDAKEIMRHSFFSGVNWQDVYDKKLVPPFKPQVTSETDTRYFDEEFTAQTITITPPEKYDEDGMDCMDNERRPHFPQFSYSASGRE

[2] = biological target: Tyrosine-protein kinase CSK (Homo sapiens, UniProt P41240)
Tyrosine-protein kinase CSK, sequence (P41240 whole entry, canonical isoform): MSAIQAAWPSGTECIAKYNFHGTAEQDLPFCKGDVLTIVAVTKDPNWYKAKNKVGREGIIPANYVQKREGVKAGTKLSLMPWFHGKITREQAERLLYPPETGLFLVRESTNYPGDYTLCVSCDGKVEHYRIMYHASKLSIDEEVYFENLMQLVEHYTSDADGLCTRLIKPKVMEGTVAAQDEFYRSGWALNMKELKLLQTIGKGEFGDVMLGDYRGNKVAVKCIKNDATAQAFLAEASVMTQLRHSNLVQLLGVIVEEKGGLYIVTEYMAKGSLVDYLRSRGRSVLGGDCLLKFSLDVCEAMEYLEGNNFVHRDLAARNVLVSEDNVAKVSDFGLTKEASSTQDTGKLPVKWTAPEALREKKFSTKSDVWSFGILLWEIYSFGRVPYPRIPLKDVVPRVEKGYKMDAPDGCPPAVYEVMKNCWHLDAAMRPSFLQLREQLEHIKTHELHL

[3] = biological target: Casein kinase I isoform delta (Homo sapiens, UniProt P48730)
Casein kinase I isoform delta, sequence (P48730 whole entry, canonical isoform): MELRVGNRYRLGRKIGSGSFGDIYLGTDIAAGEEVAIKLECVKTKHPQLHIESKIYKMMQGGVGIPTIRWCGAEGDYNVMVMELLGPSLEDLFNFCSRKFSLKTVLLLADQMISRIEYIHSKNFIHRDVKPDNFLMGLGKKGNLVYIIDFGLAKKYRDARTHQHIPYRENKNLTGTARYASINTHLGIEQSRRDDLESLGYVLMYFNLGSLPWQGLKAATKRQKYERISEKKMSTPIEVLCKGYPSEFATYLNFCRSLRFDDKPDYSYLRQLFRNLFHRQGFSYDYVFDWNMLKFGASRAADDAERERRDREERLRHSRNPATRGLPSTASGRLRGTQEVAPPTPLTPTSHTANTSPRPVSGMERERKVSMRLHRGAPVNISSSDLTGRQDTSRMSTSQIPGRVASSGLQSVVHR

Ephrin type-A receptor 2 = Ephrin type-A receptor 2 (Homo sapiens, UniProt P29317)
Ephrin type-A receptor 2, sequence (P29317 whole entry): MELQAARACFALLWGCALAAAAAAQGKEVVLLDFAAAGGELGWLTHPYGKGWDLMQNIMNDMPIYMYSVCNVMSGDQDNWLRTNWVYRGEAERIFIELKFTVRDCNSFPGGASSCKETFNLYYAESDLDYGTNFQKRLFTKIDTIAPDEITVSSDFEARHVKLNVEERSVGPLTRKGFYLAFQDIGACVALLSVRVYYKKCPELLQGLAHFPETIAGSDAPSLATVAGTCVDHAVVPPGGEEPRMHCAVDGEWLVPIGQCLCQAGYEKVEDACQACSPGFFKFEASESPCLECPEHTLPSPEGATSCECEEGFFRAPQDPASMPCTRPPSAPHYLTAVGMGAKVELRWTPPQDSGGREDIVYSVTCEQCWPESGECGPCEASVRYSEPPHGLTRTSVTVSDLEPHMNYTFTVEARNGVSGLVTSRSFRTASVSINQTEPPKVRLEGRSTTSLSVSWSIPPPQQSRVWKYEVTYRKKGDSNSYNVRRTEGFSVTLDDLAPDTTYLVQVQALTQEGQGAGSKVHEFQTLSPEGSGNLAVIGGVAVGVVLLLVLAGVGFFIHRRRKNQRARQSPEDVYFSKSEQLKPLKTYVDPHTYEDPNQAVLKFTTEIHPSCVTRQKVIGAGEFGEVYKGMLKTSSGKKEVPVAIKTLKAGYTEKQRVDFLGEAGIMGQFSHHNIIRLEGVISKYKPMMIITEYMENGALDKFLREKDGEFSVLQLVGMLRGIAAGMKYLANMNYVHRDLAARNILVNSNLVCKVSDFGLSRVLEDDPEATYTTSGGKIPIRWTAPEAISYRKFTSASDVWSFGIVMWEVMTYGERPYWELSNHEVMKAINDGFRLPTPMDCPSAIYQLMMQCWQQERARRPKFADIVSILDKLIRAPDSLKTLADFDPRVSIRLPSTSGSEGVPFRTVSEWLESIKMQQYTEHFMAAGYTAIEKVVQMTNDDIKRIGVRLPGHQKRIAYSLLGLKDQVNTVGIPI

[4] = biological target: Myosin light chain kinase, smooth muscle (Homo sapiens, UniProt Q15746)
[5] = biological target: T2, NUAK family SNF1-like kinase 2 (Homo sapiens, UniProt Q9H093)
T2 sequence (Q9H093 whole entry): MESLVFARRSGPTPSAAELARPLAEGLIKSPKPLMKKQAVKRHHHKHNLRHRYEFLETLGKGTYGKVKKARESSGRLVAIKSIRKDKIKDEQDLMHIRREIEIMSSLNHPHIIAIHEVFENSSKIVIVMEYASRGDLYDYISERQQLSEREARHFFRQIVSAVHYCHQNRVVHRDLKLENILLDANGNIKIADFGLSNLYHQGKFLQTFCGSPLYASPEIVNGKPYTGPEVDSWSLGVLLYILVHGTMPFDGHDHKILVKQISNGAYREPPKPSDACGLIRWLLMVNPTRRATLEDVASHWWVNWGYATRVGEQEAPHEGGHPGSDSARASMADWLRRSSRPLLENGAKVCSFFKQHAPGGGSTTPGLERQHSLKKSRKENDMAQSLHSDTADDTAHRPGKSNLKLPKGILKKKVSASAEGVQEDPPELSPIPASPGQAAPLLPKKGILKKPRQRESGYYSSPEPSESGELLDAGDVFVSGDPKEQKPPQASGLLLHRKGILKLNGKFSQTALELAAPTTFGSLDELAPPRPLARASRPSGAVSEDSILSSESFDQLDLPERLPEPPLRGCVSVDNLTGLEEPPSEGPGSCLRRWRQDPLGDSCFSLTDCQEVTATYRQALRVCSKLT

[6] = biological target: T3, Bifunctional phosphoribosylaminoimidazole carboxylase/phosphoribosylaminoimidazole succinocarboxamide synthetase (Homo sapiens, UniProt P22234)
T3 sequence (P22234 whole entry): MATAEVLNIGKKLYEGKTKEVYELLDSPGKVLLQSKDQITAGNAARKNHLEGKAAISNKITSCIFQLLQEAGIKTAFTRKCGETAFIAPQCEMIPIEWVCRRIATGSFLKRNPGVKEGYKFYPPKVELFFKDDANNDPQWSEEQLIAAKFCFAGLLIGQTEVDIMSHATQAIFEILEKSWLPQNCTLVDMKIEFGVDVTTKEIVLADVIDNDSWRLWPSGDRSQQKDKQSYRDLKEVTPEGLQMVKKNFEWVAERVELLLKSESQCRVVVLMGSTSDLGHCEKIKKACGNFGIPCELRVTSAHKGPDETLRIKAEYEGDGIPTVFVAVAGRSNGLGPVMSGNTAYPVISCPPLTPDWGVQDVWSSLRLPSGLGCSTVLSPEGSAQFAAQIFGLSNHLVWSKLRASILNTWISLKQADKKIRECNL

Rab-like protein 3 = biological target: T4, Rab-like protein 3 (Homo sapiens, UniProt Q5HYI8)
T4 sequence (Q5HYI8 whole entry): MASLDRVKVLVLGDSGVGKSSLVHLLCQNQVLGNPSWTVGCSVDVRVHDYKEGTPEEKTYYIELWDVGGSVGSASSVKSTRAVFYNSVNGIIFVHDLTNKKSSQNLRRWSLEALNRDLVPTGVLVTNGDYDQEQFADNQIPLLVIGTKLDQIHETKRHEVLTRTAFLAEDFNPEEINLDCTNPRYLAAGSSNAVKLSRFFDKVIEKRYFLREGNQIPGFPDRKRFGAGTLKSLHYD

Septin-9 = biological target: T5, Septin-9 (Homo sapiens, UniProt Q9UHD8)
T5 sequence (Q9UHD8 whole entry): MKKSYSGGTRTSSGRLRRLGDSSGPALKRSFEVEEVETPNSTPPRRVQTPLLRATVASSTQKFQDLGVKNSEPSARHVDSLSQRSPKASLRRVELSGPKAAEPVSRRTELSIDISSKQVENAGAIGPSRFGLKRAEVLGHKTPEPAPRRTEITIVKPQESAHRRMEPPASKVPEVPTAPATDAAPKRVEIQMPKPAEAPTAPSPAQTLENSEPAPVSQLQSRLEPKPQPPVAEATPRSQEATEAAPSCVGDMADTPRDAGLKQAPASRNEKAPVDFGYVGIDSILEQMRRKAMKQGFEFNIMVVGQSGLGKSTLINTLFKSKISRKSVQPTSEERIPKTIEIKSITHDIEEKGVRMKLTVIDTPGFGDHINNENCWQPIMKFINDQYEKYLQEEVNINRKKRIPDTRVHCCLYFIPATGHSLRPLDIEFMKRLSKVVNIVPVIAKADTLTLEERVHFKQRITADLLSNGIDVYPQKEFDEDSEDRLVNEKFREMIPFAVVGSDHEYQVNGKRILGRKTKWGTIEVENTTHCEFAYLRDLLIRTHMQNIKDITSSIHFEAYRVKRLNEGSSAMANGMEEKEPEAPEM

[7] = biological target: TRAF2 and NCK-interacting protein kinase (Homo sapiens, UniProt Q9UKE5)
TRAF2 and NCK-interacting protein kinase, sequence (Q9UKE5 whole entry): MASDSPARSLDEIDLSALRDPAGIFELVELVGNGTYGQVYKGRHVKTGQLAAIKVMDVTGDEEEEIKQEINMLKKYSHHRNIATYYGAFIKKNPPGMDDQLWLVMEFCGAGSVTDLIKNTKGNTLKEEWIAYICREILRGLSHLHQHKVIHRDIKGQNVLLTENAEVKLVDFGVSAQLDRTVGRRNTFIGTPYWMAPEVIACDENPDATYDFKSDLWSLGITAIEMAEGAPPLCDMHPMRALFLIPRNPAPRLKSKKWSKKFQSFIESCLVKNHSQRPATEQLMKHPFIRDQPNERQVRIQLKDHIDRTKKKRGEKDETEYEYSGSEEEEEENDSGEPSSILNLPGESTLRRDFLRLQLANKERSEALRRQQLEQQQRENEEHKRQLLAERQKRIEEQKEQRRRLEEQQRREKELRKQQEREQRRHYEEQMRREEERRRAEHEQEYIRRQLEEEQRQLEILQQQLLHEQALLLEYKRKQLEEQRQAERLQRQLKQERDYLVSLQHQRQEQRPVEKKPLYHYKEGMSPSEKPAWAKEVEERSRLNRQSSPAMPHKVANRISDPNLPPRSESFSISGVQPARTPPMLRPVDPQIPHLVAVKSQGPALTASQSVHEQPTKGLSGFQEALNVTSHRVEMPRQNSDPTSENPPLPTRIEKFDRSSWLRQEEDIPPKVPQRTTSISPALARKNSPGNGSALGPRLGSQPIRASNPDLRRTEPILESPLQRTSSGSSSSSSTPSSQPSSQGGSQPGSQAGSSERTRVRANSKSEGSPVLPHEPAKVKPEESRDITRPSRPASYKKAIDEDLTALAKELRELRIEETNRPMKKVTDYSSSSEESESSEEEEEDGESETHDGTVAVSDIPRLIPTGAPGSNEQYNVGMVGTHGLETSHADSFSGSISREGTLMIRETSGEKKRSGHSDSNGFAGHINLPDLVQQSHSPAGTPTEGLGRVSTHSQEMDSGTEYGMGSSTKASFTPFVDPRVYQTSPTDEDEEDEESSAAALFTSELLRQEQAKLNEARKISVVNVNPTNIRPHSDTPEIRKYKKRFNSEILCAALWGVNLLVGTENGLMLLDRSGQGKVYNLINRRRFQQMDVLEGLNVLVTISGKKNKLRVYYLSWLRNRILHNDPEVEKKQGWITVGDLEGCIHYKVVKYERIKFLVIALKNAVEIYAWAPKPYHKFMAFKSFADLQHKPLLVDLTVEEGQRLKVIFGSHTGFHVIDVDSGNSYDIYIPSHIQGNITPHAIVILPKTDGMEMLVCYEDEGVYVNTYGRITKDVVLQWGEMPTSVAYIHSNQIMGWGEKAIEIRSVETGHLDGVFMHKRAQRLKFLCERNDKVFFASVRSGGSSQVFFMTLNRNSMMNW
Further: in the data inactive means no Kd found up to 30 µM.

| Structure (SMILES) | Kd (Activin receptor type-1B) | Kd [1] | Kd [2] | Kd [3] | Kd (Ephrin type-A receptor 2) | Kd [4] | Kd [5] | Kd [6] | Kd (Rab-like protein 3) | Kd (Septin-9) | Kd [7] |
| --- | --- | --- | --- | --- | --- | --- | --- | --- | --- | --- | --- |
| Cc1ccc(-n2nc(C(C)(C)C)cc2NC(=O)NCc2cc(F)ccc2Oc2ccc3c(cnn3CCO)c2)cc1 [PEXMETINIB] | > 30 µM (inactive) | > 30 µM (inactive) | > 30 µM (inactive) | > 30 µM (inactive) | 2.56 µM (active) | 0.081 µM | > 30 µM (inactive) | > 30 µM (inactive) | > 30 µM (inactive) | > 30 µM (inactive) | > 30 µM (inactive) |
| OCCn1cc(-c2cnc3nnn(Cc4ccc5ncccc5c4)c3n2)cn1 [PF-04217903] | > 30 µM (inactive) | > 30 µM (inactive) | > 30 µM (inactive) | > 30 µM (inactive) | > 30 µM (inactive) | > 30 µM (inactive) | > 30 µM (inactive) | > 30 µM (inactive) | > 30 µM (inactive) | > 30 µM (inactive) | > 30 µM (inactive) |
| CC(=O)Nc1cccc(-n2c(=O)n(C3CC3)c(=O)c3c(Nc4ccc(I)cc4F)n(C)c(=O)c(C)c32)c1 [TRAMETINIB] | > 30 µM (inactive) | > 30 µM (inactive) | > 30 µM (inactive) | > 30 µM (inactive) | > 30 µM (inactive) | > 30 µM (inactive) | > 30 µM (inactive) | > 30 µM (inactive) | > 30 µM (inactive) | > 30 µM (inactive) | > 30 µM (inactive) |
| COC(=O)N[C@@H](C)CNc1nccc(-c2cn(C(C)C)nc2-c2cc(Cl)cc(NS(C)(=O)=O)c2F)n1 [ENCORAFENIB] | > 30 µM (inactive) | > 30 µM (inactive) | > 30 µM (inactive) | > 30 µM (inactive) | > 30 µM (inactive) | > 30 µM (inactive) | > 30 µM (inactive) | > 30 µM (inactive) | > 30 µM (inactive) | > 30 µM (inactive) | > 30 µM (inactive) |
| O=C(Nc1ccc(-c2ccnc(Nc3ccc(N4CCOCC4)cc3)n2)cc1)C1CCCN1 (stereo not drawn) [XL-019] | > 30 µM (inactive) | > 30 µM (inactive) | > 30 µM (inactive) | > 30 µM (inactive) | > 30 µM (inactive) | > 30 µM (inactive) | > 30 µM (inactive) | > 30 µM (inactive) | > 30 µM (inactive) | > 30 µM (inactive) | > 30 µM (inactive) |
| Cc1ccc(NC(=O)c2ccc(CN3CC[C@H](N(C)C)C3)c(C(F)(F)F)c2)cc1Nc1nccc(-c2cncnc2)n1 [BAFETINIB] | > 30 µM (inactive) | > 30 µM (inactive) | 2.15 µM (active) | > 30 µM (inactive) | 0.09 µM (active) | 1.21 µM | > 30 µM (inactive) | > 30 µM (inactive) | > 30 µM (inactive) | > 30 µM (inactive) | > 30 µM (inactive) |
| COc1ccc(-c2ccc3c(N4CCOC[C@@H]4C)nc(N4CCOC[C@@H]4C)nc3n2)cc1CO [AZD-8055] | > 30 µM (inactive) | > 30 µM (inactive) | > 30 µM (inactive) | > 30 µM (inactive) | > 30 µM (inactive) | > 30 µM (inactive) | > 30 µM (inactive) | > 30 µM (inactive) | > 30 µM (inactive) | > 30 µM (inactive) | > 30 µM (inactive) |
| Cn1cc(-c2ccc(F)c(C(F)(F)F)c2)nc1C1CCN(c2ncnc3[nH]ncc23)CC1 [LY-2584702] | > 30 µM (inactive) | > 30 µM (inactive) | > 30 µM (inactive) | > 30 µM (inactive) | > 30 µM (inactive) | > 30 µM (inactive) | > 30 µM (inactive) | > 30 µM (inactive) | > 30 µM (inactive) | > 30 µM (inactive) | > 30 µM (inactive) |
| N[C@@H]1CCCN(c2c(/C=C3\SC(=O)NC3=O)cccc2-c2ccccc2)C1 | > 30 µM (inactive) | > 30 µM (inactive) | > 30 µM (inactive) | > 30 µM (inactive) | > 30 µM (inactive) | > 30 µM (inactive) | > 30 µM (inactive) | > 30 µM (inactive) | > 30 µM (inactive) | > 30 µM (inactive) | > 30 µM (inactive) |
| CNC(=O)CN1CCC(Oc2cc3c(Nc4cccc(Cl)c4F)ncnc3cc2OC)CC1 [SAPITINIB] | > 30 µM (inactive) | > 30 µM (inactive) | > 30 µM (inactive) | > 30 µM (inactive) | 8.2 µM | > 30 µM (inactive) | > 30 µM (inactive) | > 30 µM (inactive) | > 30 µM (inactive) | > 30 µM (inactive) | > 30 µM (inactive) |
| COc1cc(CCc2cc(NC(=O)c3ccc(N4C[C@@H](C)N[C@@H](C)C4)cc3)n[nH]2)cc(OC)c1 [AZD-4547] | > 30 µM (inactive) | > 30 µM (inactive) | > 30 µM (inactive) | > 30 µM (inactive) | > 30 µM (inactive) | > 30 µM (inactive) | > 30 µM (inactive) | > 30 µM (inactive) | > 30 µM (inactive) | > 30 µM (inactive) | 1.39 µM |
| CNC(=O)c1ccc(C)c(-n2c(C)cc(OCc3ccc(F)cc3F)c(Br)c2=O)c1 [PH-797804] | > 30 µM (inactive) | > 30 µM (inactive) | > 30 µM (inactive) | > 30 µM (inactive) | > 30 µM (inactive) | > 30 µM (inactive) | > 30 µM (inactive) | > 30 µM (inactive) | > 30 µM (inactive) | > 30 µM (inactive) | > 30 µM (inactive) |
| CNC(=O)c1cc(Oc2ccc(NC(=O)Nc3ccc(Cl)c(C(F)(F)F)c3)c(F)c2)ccn1 [REGORAFENIB] | > 30 µM (inactive) | > 30 µM (inactive) | > 30 µM (inactive) | > 30 µM (inactive) | 0.832 µM (active) | > 30 µM (inactive) | > 30 µM (inactive) | > 30 µM (inactive) | > 30 µM (inactive) | > 30 µM (inactive) | > 30 µM (inactive) |
